Measurements reported in ChEMBL document CHEMBL1201862, “PubChem BioAssay data set” (2004).
Active and inactive are the calls of the source.

Legend:
[1] = target: T1, Probable nicotinate-nucleotide adenylyltransferase (Staphylococcus aureus (strain N315), UniProt P65502); type: functional, Staphylococcus aureus subsp. aureus N315; details: read-out: IC50_Mean;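 for IC50 Mean: confirmatory dose-response retesting of NadD inhibitor hits first found in an ultra-high-throughput screen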
[2] = target: T1, Probable nicotinate-nucleotide adenylyltransferase; type: functional, Staphylococcus aureus subsp. aureus N315
[3] = target: T2, Insulin-degrading enzyme (Homo sapiens, UniProt P14735); assay: activators of endogenous IDE in HEK cells, dose response, cell-based, fluorescence polarization (AID 588439); type: functional
T2 sequence (P14735 whole entry): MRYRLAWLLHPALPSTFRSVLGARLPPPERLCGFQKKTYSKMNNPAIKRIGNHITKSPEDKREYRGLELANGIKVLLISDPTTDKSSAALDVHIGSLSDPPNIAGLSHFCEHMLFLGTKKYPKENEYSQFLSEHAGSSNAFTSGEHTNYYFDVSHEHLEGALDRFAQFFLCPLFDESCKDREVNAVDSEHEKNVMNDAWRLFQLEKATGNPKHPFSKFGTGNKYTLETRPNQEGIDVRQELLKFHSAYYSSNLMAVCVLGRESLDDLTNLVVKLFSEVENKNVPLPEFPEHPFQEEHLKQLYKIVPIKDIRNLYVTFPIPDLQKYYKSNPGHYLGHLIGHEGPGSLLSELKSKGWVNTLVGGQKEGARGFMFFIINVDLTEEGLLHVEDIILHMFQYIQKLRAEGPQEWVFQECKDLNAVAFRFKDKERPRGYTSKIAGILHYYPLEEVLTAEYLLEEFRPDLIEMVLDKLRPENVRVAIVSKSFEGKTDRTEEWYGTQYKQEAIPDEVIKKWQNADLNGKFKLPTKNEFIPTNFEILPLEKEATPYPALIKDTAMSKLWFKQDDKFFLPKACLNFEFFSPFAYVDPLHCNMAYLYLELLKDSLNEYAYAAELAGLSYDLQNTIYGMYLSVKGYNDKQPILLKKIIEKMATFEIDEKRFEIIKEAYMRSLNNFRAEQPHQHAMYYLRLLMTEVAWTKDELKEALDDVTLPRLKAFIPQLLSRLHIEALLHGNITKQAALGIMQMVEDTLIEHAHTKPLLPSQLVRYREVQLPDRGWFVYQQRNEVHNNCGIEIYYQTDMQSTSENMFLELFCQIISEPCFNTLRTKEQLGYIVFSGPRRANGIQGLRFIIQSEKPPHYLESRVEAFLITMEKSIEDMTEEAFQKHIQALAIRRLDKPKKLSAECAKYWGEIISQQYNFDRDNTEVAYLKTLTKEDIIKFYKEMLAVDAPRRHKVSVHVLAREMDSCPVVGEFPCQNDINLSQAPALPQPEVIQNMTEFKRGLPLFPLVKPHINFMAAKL

[4] = tested on: HEK293; assay: HEK cell cytotoxicity by LDH release, dose response, cytotoxicity control for IDE activator project, fluorescence, HEK cells (AID 588440); type: functional, cell-based; details: Homo sapiens;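 note: cytotoxicity by LDH release measuring loss of membrane integrity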
[5] = inhibitors of SNCA 5'UTR-driven reporter translation, confirmation, H4 neuroglioma cells, luminescence (AID 1988); type: functional, cell-based
[6] = Luminescence Cell-Based Dose Response HTS to Identify Inhibitors of 5'UTR Stem-Loop Driven Prion Protein mRNA Translation in H4 Neuroglioblastoma Cells. [Related pubchem assays: 1827 (Project Summary), 1813 (Primary HTS)]; type: functional
[7] = target: T2, Insulin-degrading enzyme; assay: activators of recombinant IDE enzyme, dose response, counter-screen for IDE activator project, biochemical, fluorescence polarization (AID 588681)
[8] = tested on: HEK293; assay: optical interference in Abeta FP readout, dose response, artefact control for IDE activator project, biochemical, fluorescence polarization (AID 588442); type: functional, cell-based; details: Homo sapiens
[9] = inhibitors of firefly luciferase expression or activity, dose response, H4 neuroglioma cells, luminescence (AID 1990); type: functional, cell-based
[10] = target: T3, Short transient receptor potential channel 4 (Mus musculus, UniProt Q9QUQ5); assay: mouse TRPC4 channel inhibitors, dose response, cell-based, HEK293 TRPC4/mu-opioid, Fluo-4 calcium (AID 434942); type: functional;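 note: potency of inhibitors blocking the TRPC4 calcium response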
T3 sequence (Q9QUQ5 whole entry): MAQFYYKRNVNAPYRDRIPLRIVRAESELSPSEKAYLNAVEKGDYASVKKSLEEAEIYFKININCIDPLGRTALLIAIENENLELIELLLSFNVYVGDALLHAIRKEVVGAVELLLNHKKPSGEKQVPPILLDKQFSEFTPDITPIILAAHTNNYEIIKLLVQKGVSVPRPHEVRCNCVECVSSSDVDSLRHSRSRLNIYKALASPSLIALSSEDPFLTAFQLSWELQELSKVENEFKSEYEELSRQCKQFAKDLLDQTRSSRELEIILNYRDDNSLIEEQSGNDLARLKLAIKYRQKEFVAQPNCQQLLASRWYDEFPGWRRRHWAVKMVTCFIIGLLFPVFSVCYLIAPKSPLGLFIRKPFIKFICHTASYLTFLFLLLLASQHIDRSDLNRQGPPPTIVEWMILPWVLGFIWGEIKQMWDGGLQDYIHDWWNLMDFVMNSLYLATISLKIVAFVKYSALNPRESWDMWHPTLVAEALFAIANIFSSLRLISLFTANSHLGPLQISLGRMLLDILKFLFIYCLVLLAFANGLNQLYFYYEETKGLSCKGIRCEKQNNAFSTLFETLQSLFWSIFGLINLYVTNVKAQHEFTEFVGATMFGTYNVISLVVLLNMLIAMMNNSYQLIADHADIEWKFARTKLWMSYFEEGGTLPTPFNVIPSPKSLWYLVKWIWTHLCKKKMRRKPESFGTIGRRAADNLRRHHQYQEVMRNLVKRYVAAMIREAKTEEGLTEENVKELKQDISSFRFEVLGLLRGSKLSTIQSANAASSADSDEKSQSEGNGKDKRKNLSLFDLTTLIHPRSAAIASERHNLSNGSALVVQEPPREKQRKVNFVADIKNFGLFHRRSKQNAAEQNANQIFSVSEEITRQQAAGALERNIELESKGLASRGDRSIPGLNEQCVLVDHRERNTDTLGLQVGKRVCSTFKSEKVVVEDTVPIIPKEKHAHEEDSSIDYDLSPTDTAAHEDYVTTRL

[11] = target: T4, DNA repair and recombination protein RAD54-like (Homo sapiens, UniProt Q92698); assay: inhibitors of human RAD54 branch migration, confirmation, biochemical, fluorescence, cherry-picked samples, dose series (AID 651657); type: functional
T4 sequence (Q92698 whole entry): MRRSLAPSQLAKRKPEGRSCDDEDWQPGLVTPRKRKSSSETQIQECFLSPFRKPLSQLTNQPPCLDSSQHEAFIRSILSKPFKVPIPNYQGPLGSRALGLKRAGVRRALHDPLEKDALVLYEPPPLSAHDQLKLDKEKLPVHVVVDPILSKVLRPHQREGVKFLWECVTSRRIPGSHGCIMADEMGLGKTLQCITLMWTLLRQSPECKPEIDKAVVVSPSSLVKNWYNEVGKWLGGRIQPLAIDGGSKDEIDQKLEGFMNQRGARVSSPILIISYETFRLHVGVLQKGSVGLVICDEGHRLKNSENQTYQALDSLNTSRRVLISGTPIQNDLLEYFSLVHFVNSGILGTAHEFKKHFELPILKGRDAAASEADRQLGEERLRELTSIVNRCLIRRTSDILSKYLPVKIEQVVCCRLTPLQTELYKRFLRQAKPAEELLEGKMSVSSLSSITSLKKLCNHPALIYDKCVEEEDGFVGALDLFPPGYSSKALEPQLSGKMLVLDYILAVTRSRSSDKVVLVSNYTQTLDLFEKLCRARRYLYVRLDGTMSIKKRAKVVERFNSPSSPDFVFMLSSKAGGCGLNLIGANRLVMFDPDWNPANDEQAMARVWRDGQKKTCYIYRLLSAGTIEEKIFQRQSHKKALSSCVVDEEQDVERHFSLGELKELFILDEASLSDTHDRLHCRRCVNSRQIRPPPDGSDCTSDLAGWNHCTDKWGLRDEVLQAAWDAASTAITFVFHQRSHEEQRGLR

[12] = cytotoxicity toward NIH3T3 fibroblasts, dose response, counter-screen, cell-based, ATP luminescence, mouse fibroblasts (AID 2010); type: functional;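 note: cells exposed to compound for about 90 hours before reading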
[13] = MDA-MB-231 cell growth inhibition, dose response, cytotoxicity control for RAD54 inhibitor project, CellTiter-Glo luminescence, cherry-pick (AID 651692); type: functional, cell-based
[14] = THP-1 cell cytotoxicity, dose response, cytotoxicity control for non-replicating M. tuberculosis project (AID 489025); type: functional
[15] = inhibitors of intracellular T. cruzi replication, confirmation, NIH3T3 host cells, beta-gal luminescence (AID 2044); type: functional, cell-based;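 note: intracellular parasites grown in NIH/3T3 mouse fibroblasts as host cells; luminescent beta-galactosidase reporter signal from transgenic T. cruzi replicating inside host cells; inhibitors lower the luminescence signal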
[16] = target: T5, Sentrin-specific protease 1 (Homo sapiens, UniProt Q9P0U3); assay: potency of human SENP1 inhibitors, dose response, biochemical, kinetic FRET (AID 651697); type: functional; details: read-out: IC50_Mean
T5 sequence (Q9P0U3 whole entry): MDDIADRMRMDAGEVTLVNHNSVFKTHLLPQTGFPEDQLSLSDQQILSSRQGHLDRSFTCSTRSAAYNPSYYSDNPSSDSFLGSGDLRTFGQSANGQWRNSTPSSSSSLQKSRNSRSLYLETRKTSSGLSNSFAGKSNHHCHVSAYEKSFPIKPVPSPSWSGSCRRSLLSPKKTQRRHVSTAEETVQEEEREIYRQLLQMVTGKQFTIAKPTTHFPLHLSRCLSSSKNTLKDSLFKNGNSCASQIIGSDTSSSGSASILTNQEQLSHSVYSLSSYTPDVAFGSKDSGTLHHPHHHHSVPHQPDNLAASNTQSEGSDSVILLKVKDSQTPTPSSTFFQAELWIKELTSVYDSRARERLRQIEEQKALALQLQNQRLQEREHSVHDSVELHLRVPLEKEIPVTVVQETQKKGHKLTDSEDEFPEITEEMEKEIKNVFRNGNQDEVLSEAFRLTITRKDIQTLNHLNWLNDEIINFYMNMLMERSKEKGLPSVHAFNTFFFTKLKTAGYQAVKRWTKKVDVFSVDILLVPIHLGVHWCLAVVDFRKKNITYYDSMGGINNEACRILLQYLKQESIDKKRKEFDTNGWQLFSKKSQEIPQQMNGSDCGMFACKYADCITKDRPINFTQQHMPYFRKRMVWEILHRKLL

[17] = target: T5, Sentrin-specific protease 1; assay: Dose response confirmation of small molecule inhibitors of the catalytic domain of the SUMO protease, SENP1 in a FRET assay.; type: functional; details: read-out: IC50_Mean
[18] = target: T6, Corticotropin-releasing factor receptor 2/Corticotropin-releasing factor-binding protein (Homo sapiens, UniProt P24387+Q13324); assay: Dose Response confirmation of uHTS hits for small molecule antagonists of the CRF-binding protein and CRF-R2 receptor complex.; type: functional; details: read-out: IC50_Mean
T6 sequence (Q13324 whole entry): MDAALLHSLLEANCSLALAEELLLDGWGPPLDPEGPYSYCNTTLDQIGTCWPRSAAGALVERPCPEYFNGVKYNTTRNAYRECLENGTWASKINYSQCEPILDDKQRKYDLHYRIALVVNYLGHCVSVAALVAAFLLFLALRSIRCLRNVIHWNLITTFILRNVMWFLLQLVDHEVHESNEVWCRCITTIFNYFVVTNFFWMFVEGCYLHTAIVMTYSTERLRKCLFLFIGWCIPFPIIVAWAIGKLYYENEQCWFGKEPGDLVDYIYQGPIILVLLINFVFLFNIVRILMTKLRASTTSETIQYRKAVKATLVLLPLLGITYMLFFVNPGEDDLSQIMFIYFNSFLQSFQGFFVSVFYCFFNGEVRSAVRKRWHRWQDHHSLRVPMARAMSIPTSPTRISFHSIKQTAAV
T6 sequence (P24387 whole entry): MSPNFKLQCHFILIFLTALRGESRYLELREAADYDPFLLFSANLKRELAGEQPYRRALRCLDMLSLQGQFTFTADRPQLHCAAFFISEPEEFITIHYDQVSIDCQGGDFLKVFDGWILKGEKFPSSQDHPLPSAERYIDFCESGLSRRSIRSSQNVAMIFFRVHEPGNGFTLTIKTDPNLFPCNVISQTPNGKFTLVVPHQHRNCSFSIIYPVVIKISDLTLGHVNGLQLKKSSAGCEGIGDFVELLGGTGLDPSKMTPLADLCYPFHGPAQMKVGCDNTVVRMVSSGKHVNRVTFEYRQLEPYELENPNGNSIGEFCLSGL

[19] = target: T6, Corticotropin-releasing factor receptor 2/Corticotropin-releasing factor-binding protein; assay: activators of CRF receptor 2 with binding protein – uHTS hits, confirmation (AID 602473); type: functional; details: read-out: EC50_Mean
[20] = CRF-BP/CRF-R2 complex antagonists, dose response, cell-based, uHTS hits, 384-well (AID 651639); type: functional, Homo sapiens; details: read-out: IC50_Mean
[21] = target: T7, Interleukin-8 (Homo sapiens, UniProt P10145); assay: Dose Response confirmation of uHTS small molecule hits for cystic fibrosis induced NFkb Inhibitors in a PAF-induced IL8 counterscreen.; type: functional; details: read-out: IC50_Mean
T7 sequence (P10145 whole entry): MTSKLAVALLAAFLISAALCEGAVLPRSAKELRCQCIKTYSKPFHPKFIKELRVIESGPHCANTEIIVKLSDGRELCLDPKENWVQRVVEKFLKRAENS

T1 sequence (P65502 whole entry): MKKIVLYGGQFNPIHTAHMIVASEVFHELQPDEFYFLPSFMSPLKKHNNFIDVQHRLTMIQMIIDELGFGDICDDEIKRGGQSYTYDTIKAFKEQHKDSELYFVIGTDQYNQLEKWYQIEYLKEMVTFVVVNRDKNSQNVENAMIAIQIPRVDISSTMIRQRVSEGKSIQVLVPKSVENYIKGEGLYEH

Cc1cc2[nH]c(=O)c(=O)[nH]c2cc1S(=O)(=O)N1CCN(c2cccc(C(F)(F)F)c2)CC1
IC50 [1]: 29.2 µM (active)
IC50 [2]: 9.57 µM (active)

COc1ccc(/C=C2/SC(=S)N(CCCC(=O)Nc3ccccc3C(=O)O)C2=O)cc1
EC50 [3]: > 54.6 µM (inactive)
IC50 [4]: > 89.1 µM (inactive)
EC50 [5]: 11.1 µM (active)
EC50 [6]: 11.2 µM (active)
EC50 [7]: > 54.6 µM (inactive)
EC50 [8]: 58.7 µM (inactive)
EC50 [9]: 11 µM (active)
EC50 [10]: 6.68 µM (active)

CCN(CC)CCSc1nnc2c3cc(C)ccc3n(Cc3ccccc3)c2n1
AC50 [11]: 31.4 µM (active)
EC50 [12]: > 60 µM (not active)
AC50 [13]: 30.6 µM (active)
CC50 [14]: 26.1 µM (active)
EC50 [15]: 0.754 µM (active)

C=CCOCCN1C(=O)C2C(c3ccccc3)C=CC(c3ccccc3)C2C1=O (stereo unspecified)
IC50 [16]: 6.05 µM (active)
IC50 [17]: 4.3 µM (active)

CCc1ccc(-c2cc(C)no2)cc1S(=O)(=O)Nc1ccc(Cl)cn1
IC50 [18]: 27.5 µM (active)
EC50 [19]: > 53 µM (inactive)
IC50 [20]: > 20 µM (inactive)

Cc1cccc(CSc2ccc3nnc(-c4cccs4)n3n2)c1
IC50 [18]: 32.2 µM (active)
EC50 [19]: > 53 µM (inactive)
IC50 [20]: 2.57 µM (active)

CCOC(=O)c1c(O)nc2ccc(Cl)c3c2c1-c1ccccc1C3=O
IC50 [16]: 18.3 µM (active)
IC50 [17]: 2.75 µM (active)

COCCNc1nc(Oc2cncc(Cl)c2)c2sccc2n1
IC50 [21]: 29.2 µM (inactive)
